Patent US20210163471A1, “PROGRANULIN MODULATORS AND METHODS OF USING THE SAME” (ARKUDA THERAPEUTICS, priority 2017, published 2021)
Read-outs that look alike come from different tables or passages of the source.

System: BV-2 (mouse microglia) cells
Experiment: progranulin secretion from BV-2 cells, mouse progranulin ELISA of conditioned media
Format: cell-based
Details: BV-2 cells, 16 hours incubation, 8-point curves starting at 10 μM
Procedure: BV-2 cells are split the day before plating into a 96 well plate format at approximately 80%. Cells should be plated the day before and allowed for 1 hour attachment period and for 16 hour incubation. […] Standard ELISA kits to measure PGRN are available from vendors such as Adipogen, R&D, and Biovendor.
Compound potency was determined by measuring progranulin secretion from BV-2 (mouse microglia) cells. BV-2 cells were grown in RPMI with 2 mM L-glutamine supplemented with 10% fetal bovine serum. On the day of the assay, cells were plated in 96-well plates at a density of 30,000 cells/well in RPMI (Roswell Park Memorial Institute media)/L-glutamine supplemented with 2% Fetal clone serum II (plating media) and left to adhere for 1 hour. Following attachment to the plate, media was replaced with treatment (8-point curves in half-log dilutions starting at 10 μM) in plating media and incubated for 16 hours. Secreted progranulin was measured from a 1:10 dilution of the conditioned media using the R&D Systems mouse progranulin ELISA kit (cat #DY2557) and following the manufacturer's instructions.

[1] = Mus musculus, BV-2, 16 h, assay run v1, read-out: PRGN v1 (EC50, progranulin secretion)
[2] = Mus musculus, BV-2, 16 h, assay run v2 (same protocol, different assay), read-out: PRGN v2 (EC50, progranulin secretion)
[3] = Mus musculus, assay run v1, read-out: PRGN v1 (EC50, progranulin secretion)
[4] = assay run v2 (same protocol, different assay), read-out: PRGN v2 (EC50, progranulin secretion)

SMILES	EC50 [1] [µM]	EC50 [2] [µM]	also measured
COc1ccc([C@@H]2c3ccccc3CCN2C(=O)C[C@@H]2CN3CCC2CC3)cc1F [Compound 1061]	> 10	> 10	
O=C(C[C@@H]1CN2CCC1CC2)N1CCc2ccccc2[C@@H]1c1cccc(F)c1 [Compound 1062]	1.1	> 6.1	
O=C(C[C@@H]1CN2CCC1CC2)N1CCc2ccccc2[C@H]1c1cccc(F)c1 [Compound 1063]	> 10	> 10	
O=C(C[C@@H]1CN2CCC1CC2)N1CCc2ccccc2[C@@H]1c1ccc(F)c(F)c1 [Compound 1064]	2.71	1.83	
O=C(C[C@@H]1CN2CCC1CC2)N1CCc2ccccc2[C@H]1c1ccc(F)c(F)c1 [Compound 1065]	> 10	> 10	
O=C1CCCN1c1ccc([C@H]2c3ccccc3CCN2C(=O)C[C@@H]2CN3CCC2CC3)cc1 [Compound 1066]	> 10	> 10	
O=C1CCCN1c1ccc([C@@H]2c3ccccc3CCN2C(=O)C[C@@H]2CN3CCC2CC3)cc1 [Compound 1067]	> 10	> 10	
O=C(C[C@@H]1CN2CCC1CC2)N1CCc2ccccc2[C@@H]1c1ccc(OC2CC2)cc1 [Compound 1068]	6.14	> 10	
O=C(C[C@@H]1CN2CCC1CC2)N1CCc2ccccc2[C@H]1c1ccc(OC2CC2)cc1 [Compound 1069]	> 10	> 10	
O=C(N[C@@H]1CN2CCC1CC2)N1CCc2ccccc2[C@@H]1c1ccc(F)cc1 [Compound 1070]			EC50 [3]: 0.18 µM; EC50 (Mus musculus, assay run v2 (same protocol, different assay), read-out: PRGN v2 (EC50, progranulin secretion)): 0.26 µM
O=C(N[C@@H]1CN2CCC1CC2)N1CCc2ccccc2[C@H]1c1ccc(F)cc1 [Compound 1071]			EC50 [3]: 0.41 µM
CS(=O)(=O)c1ccc([C@H]2c3ccccc3CCN2C(=O)N[C@@H]2CN3CCC2CC3)cc1 [Compound 1072, (S)-1-(4-(methylsulfonyl)phenyl)-N—((S)-quinuclidin-3-yl)-3,4-dihydroisoquinoline-2(1H)-carboxamide]	> 4.41		
COc1ccc([C@H]2c3ccccc3CCN2C(=O)N[C@@H]2CN3CCC2CC3)cc1 [Compound 1073]	4.96		
COc1ccc([C@@H]2c3ccccc3CCN2C(=O)N[C@@H]2CN3CCC2CC3)cc1 [Compound 1074]	> 10		
O=C(N[C@@H]1CN2CCC1CC2)N1CCc2ccccc2[C@@H]1c1ccc(F)c(F)c1 [Compound 1075]	0.19		
O=C(N[C@@H]1CN2CCC1CC2)N1CCc2ccccc2[C@H]1c1ccc(F)c(F)c1 [Compound 1076]	> 10		
O=C(N[C@@H]1CN2CCC1CC2)N1CCc2ccccc2[C@@H]1c1ccncc1 [Compound 1077]	> 10		
O=C(N[C@@H]1CN2CCC1CC2)N1CCc2ccccc2[C@H]1c1ccncc1 [Compound 1078]	> 10		
O=C(N[C@@H]1CN2CCC1CC2)N1CCc2ccccc2[C@@H]1c1ccc2nccn2c1 [Compound 1079]	3.69		
O=C(N[C@@H]1CN2CCC1CC2)N1CCc2ccccc2[C@H]1c1ccc2nccn2c1 [Compound 1080]	> 10		
O=C(N[C@@H]1CN2CCC1CC2)N1CCc2ccccc2[C@@H]1c1ccc(Cl)cc1 [Compound 1081]	0.25		

SMILES	EC50 [1] [µM]	EC50 [2] [µM]	also measured
O=C(N[C@@H]1CN2CCC1CC2)N1CCc2ccccc2[C@H]1c1ccc(Cl)cc1 [Compound 1082]	1.6		
COc1ccc([C@H]2c3ccccc3CCN2C(=O)N[C@@H]2CN3CCC2CC3)cn1 [Compound 1083]	2.55		
COc1ccc([C@@H]2c3ccccc3CCN2C(=O)N[C@@H]2CN3CCC2CC3)cn1 [Compound 1084]	> 3.16		
O=C(N[C@@H]1CN2CCC1CC2)N1CCc2ccccc2[C@@H]1c1cccnc1 [Compound 1085]	1.78		
O=C(N[C@@H]1CN2CCC1CC2)N1CCc2ccccc2[C@H]1c1cccnc1 [Compound 1086]	3.13		
CC(C)Oc1ccc([C@H]2c3ccccc3CCN2C(=O)N[C@@H]2CN3CCC2CC3)cc1 [Compound 1087]	> 10		
CC(C)Oc1ccc([C@@H]2c3ccccc3CCN2C(=O)N[C@@H]2CN3CCC2CC3)cc1 [Compound 1088]	> 10		
CC1([C@H]2c3ccccc3CCN2C(=O)N[C@@H]2CN3CCC2CC3)COC1 [Compound 1089]	> 10		
CC1([C@@H]2c3ccccc3CCN2C(=O)N[C@@H]2CN3CCC2CC3)COC1 [Compound 1090]	> 10		
O=C(N[C@@H]1CN2CCC1CC2)N1CCc2ccccc2[C@@H]1c1ccc(OCc2ccccc2)cc1 [Compound 1091]	0.34		
O=C(N[C@@H]1CN2CCC1CC2)N1CCc2ccccc2[C@H]1c1ccc(OCc2ccccc2)cc1 [Compound 1092]	2.21		
O=C(N[C@@H]1CN2CCC1CC2)N1CCc2ccccc2[C@@H]1c1ccc(O)cc1 [Compound 1093]	> 3.16		
O=C(N[C@@H]1CN2CCC1CC2)N1CCc2ccccc2[C@H]1c1ccc(O)cc1 [Compound 1094]	1.29		
O=C(N[C@@H]1CN2CCC1CC2)N1CCc2ccccc2[C@@H]1c1ccc(-n2ccnc2)cc1 [Compound 1095]	> 10		
O=C(N[C@@H]1CN2CCC1CC2)N1CCc2ccccc2[C@H]1c1ccc(-n2ccnc2)cc1 [Compound 1096]	0.45		
O=C(N[C@@H]1CN2CCC1CC2)N1CCc2ccccc2[C@@H]1c1ccn2cncc2c1 [Compound 1097]	> 10		
O=C(N[C@@H]1CN2CCC1CC2)N1CCc2ccccc2[C@H]1c1ccn2cncc2c1 [Compound 1098]	> 10		
O=C(N[C@@H]1CN2CCC1CC2)N1CCc2ccccc2[C@@H]1c1ccc(-n2ccnn2)cc1 [Compound 1099]	> 10		
O=C(N[C@@H]1CN2CCC1CC2)N1CCc2ccccc2[C@H]1c1ccc(-n2ccnn2)cc1 [Compound 1100]	> 10		
O=C(N[C@@H]1CN2CCC1CC2)N1CCc2ccccc2[C@@H]1c1ccc(-n2cncn2)cc1 [Compound 1101]	3.85		
O=C(N[C@@H]1CN2CCC1CC2)N1CCc2ccccc2[C@H]1c1ccc(-n2cncn2)cc1 [Compound 1102]	> 10		

SMILES	EC50 [1] [µM]	EC50 [2] [µM]	also measured
O=C(N[C@@H]1CN2CCC1CC2)N1CCc2ccccc2[C@@H]1c1ccc(N2CCCC2)cc1 [Compound 1103]	> 10		
O=C(N[C@@H]1CN2CCC1CC2)N1CCc2ccccc2[C@H]1c1ccc(N2CCCC2)cc1 [Compound 1104]	5.09		
O=C(N[C@@H]1CN2CCC1CC2)N1CCc2ccccc2[C@@H]1c1ccn2ccnc2c1 [Compound 1105]	> 10	> 10	
O=C(N[C@@H]1CN2CCC1CC2)N1CCc2ccccc2[C@H]1c1ccn2ccnc2c1 [Compound 1106]	> 10	> 10	
O=C(N[C@@H]1CN2CCC1CC2)N1CCc2ccccc2[C@@H]1c1ccc2cccn2c1 [Compound 1107]	5.43		EC50 [4]: 3.7 µM
O=C(N[C@@H]1CN2CCC1CC2)N1CCc2ccccc2[C@@H]1c1ccc2cccn2c1 [Compound 1108]			EC50 (assay run v1, read-out: PRGN v1 (EC50, progranulin secretion)): 5.63 µM; EC50 [4]: > 10 µM
O=C(N[C@@H]1CN2CCC1CC2)N1CCc2ccccc2[C@@H]1c1cccc(F)c1 [Compound 1109]	1.03	1.44	
O=C(N[C@@H]1CN2CCC1CC2)N1CCc2ccccc2[C@H]1c1cccc(F)c1 [Compound 1110]	6.19	> 10	
O=C(N[C@@H]1CN2CCC1CC2)N1CCc2ccccc2[C@@H]1c1ccc2cncn2c1 [Compound 1111]	9.91	> 10	
O=C(N[C@@H]1CN2CCC1CC2)N1CCc2ccccc2[C@H]1c1ccc2cncn2c1 [Compound 1112]	> 10	> 10	
O=C(N[C@@H]1CN2CCC1CC2)N1CCc2ccccc2[C@@H]1c1ccc(-n2cnnc2)cc1 [Compound 1113]	3.59	> 10	
O=C(N[C@@H]1CN2CCC1CC2)N1CCc2ccccc2[C@H]1c1ccc(-n2cnnc2)cc1 [Compound 1114]	> 10	> 10	
O=C(N[C@@H]1CN2CCC1CC2)N1CCc2ccccc2[C@@H]1c1ccc(OC2CC2)cc1 [Compound 1115]	3.95	1.18	
O=C(N[C@@H]1CN2CCC1CC2)N1CCc2ccccc2[C@H]1c1ccc(OC2CC2)cc1 [Compound 1116]	4.47	> 10	
O=C(N[C@@H]1CN2CCC1CC2)N1CCc2ccccc2[C@@H]1c1cnc2nccn2c1 [Compound 1117]	> 10	> 10	
O=C(N[C@@H]1CN2CCC1CC2)N1CCc2ccccc2[C@H]1c1cnc2nccn2c1 [Compound 1118]	> 10	> 10	
O=C1CCCN1c1ccc([C@H]2c3ccccc3CCN2C(=O)N[C@@H]2CN3CCC2CC3)cc1 [Compound 1119]	> 10	> 10	
O=C1CCCN1c1ccc([C@@H]2c3ccccc3CCN2C(=O)N[C@@H]2CN3CCC2CC3)cc1 [Compound 1120]	> 10	> 10	
O=C(N[C@@H]1CN2CCC1CC2)N1CCc2cccnc2[C@@H]1c1ccc(Cl)cc1 [Compound 1121]	> 10	5.22	
